Earlier results in publication PMC9109461, “Challenges and opportunities in the development of metal-based anticancer theranostic agents” (Bioscience Reports, 2022).

Key:
[1] = test system: A549R; set-up: method as in PMID 30888144; conditions: A549R cells
[2] = test system: CaSki cells; set-up: method as in PMID 30551086
[3] = test system: HeLa cells; set-up: method as in PMID 28948792; conditions: MTT assay

IC50 [2]: 4.2 µM
IC50 [3]: 3 ± 1.2 µM
Substance: [(cis-Pt(NH3)2Cl2] [cisplatin]
IC50 [1]: 51.3 ± 1.9 µM
